Experimental data: patent publication US4328242A, “α-(3,4,5-Trimethoxyhenzoyl)thiopropionyl-glycine” (Ausoria Farmaceutici S.r.l., priority 1980, dated 1982)
Read-outs that look alike come from different tables or passages of the source.

Legend:
guinea pigs [1] = test: Protective activity in subacute bronchitis induced by inhalation of citric acid; assay type: in vivo; conditions: 7.5% citric acid inhalation, oral route, equimolar doses
rats [2] = test: Protective action on chronic bronchitis induced by inhalation of SO2; assay type: in vivo; conditions: SO2 aerosol, equimolar dosages
Method: Bronchopulmonary lesions were induced in the animals by aerosolization of SO2. The animals were then treated for two weeks with TBPG in the dosage of 100 and 400 mg/kg by the oral route, rectal route and by inhalation.

rabbits = test: Secretory activity in rabbits (bronchial secretion); assay type: in vivo; conditions: with respect to the control animals
Excerpt: This activity has been determined using the method described by E. M. Boyd and C. F. Boyd, modified by P. C. Braga, et al described in Bronchial Hypersecretion, 1973. This activity has been determined every hour for a period of four hours by measuring the amount of bronchial secretion derived from the laryngo-tracheal organs and from the tracheo-bronchial organs of rabbits.

rats [3] = test: Bronchosecretolithic activity in rats (sodium fluorescine method); assay type: in vivo; conditions: 135 mg/kg intraperitoneally (equimolar)
Method: The secretolithic activity of TBPG has been determined in comparison to α-mercaptopropionylglycine by administering 300 mg/kg of the substance intraperitonally and comparing with 135 mg/kg of α-mercaptopropionylglycine administered also intraperitoneally. The doses are equimolar. The method is based on the use of sodium fluorescine described by H. M. Mawatari (Experimental Studies on the Expectorant Action of Several Drugs, Kogoshima Daigakeu Igakeu Zasshi 27, 561, 1976).

guinea pigs [4] = test: Antibronchospastic activity, histamine aerosol; assay type: in vivo; conditions: equimolar doses
Excerpt: Histamine administered in the form of an aerosol has caused in guinea pigs symptoms of broncho-spasm accompanied by convulsions, irreversible collapse and death.

rats [5] = test: Protective activity of the liver in the intoxication caused by CCl4 (BSF elimination); assay type: in vivo; conditions: rats intoxicated with CCl4; 90 and 180 mg/kg orally (equimolar)
Method: The animals, that is rats, were intoxicated with CCl4 for a period of seven days. They were treated during the same days and for a subsequent period of seven days with TBPG in the dose of 200 and 400 mg/kg orally and with α-mercaptopropionylglycine in the dose of 90 and 180 mg/kg orally. On the fifteenth day, the rats have been treated with BSF in the amount of 10 mg/kg intravenously.

rats [6] = test: Regenerative action in partial hepatectomy; assay type: in vivo; conditions: partial hepatectomy, equimolar doses
rats [7] = test: Action on the period of sleep induced by barbiturates; assay type: in vivo; conditions: rats intoxicated with CCl4; equimolar doses
Method: The activity of TBPG administered for two days in the dose of 200 and 400 mg/kg orally, has been determined on the basis of the reduction of the period of sleep induced by Nembutal on rats intoxicated with CCl4.

[8] = assay type: in vivo; conditions: rats, oral route, equimolar doses
[9] = Stability at room temperature; assay type: physicochemical; conditions: closed containers, 36 months
Excerpt: Five different samples of TBPG and α-mercaptopropionyl glycine have been preserved at room temperature in closed containers for a period of 36 months. At the end of the storage period, the following properties have been determined: […]

[10] = Isothermic (accelerated) stability according to the method of Garret, TLC; assay type: physicochemical
Method: The tests of accelerated stability have been carried out with the substance in powder form, that is in glass vials, hermetically closed with a plastic screw cap and also with the substance dissolved in water, that is 500 mg in 10 cc in a transparent glass container of 20 cc capacity closed with a plastic screw cap.
The production of impurities, if any, due to degradation of the substance, has been determined by means of TLC.

Stability to light = assay type: physicochemical; conditions: powder form, light of a 60 watt lamp, three months
Stability to moisture = assay type: physicochemical; conditions: open vials, 90% relative humidity, a month
Method: Samples of TBPG and MPG have been maintained in open vials at room temperature under conditions of 90% relative humidity and at 50° C. always with 90% relative humidity. After a month of exposure, the following observations have been made.

[11] = Stability in solution (acidic, alkaline, oxidizing medium); assay type: physicochemical; conditions: 3% hydrogen peroxide, two months
[12] = Stability in reducing medium (SO2); assay type: physicochemical; conditions: 25 mg/ml, sodium bisulfite calculated as SO2, refluxed three hours
Method: In the presence of SO2 --solutions containing 25 mg/ml of TBPG and MPG respectively in the presence of sodium bisulfite calculated as SO2 are warmed and refluxed for a period of three hours.

[13] = solid state as a dry powder and in solution, even at low relative humidity and room temperature; cited from earlier work
[14] = Powder, 60°, read-out: Chromatographic Impurities
[15] = Powder, 70°, read-out: Chromatographic Impurities
[16] = Powder, 80°, read-out: Chromatographic Impurities
[17] = Solution (500 mg in 10 cc water), 60°, read-out: Chromatographic Impurities
[18] = Solution (500 mg in 10 cc water), 70°, read-out: Chromatographic Impurities
[19] = Solution (500 mg in 10 cc water), 80°, read-out: Chromatographic Impurities

In the case of `CC(S)C(=O)NCC(=O)O` (stereo not drawn) [α-mercaptopropionylglycine, 2-mercaptopropionylglycine], the “efficacy compared with TBPG” value (guinea pigs [1]) is reported as “essentially overlapping”, the “protection of the bronchi and lungs, compared with TBPG” value (rats [2]) is reported as “Analogous results” and the laryngo-tracheal secretion (rabbits) is reported as “P 0.05 with respect to the control animals”. For the same compound, the tracheo-bronchial secretion (rabbits) was “n.s”, the bronchosecretolithic activity (rats [3]) was 15.2% and the “antibronchospastic efficacy compared with TBPG” value (guinea pigs [4]) was “efficacy comparable”. For the same compound, the “elimination of BSF, compared with TBPG” value (rats [5]) was “comparable”, the “regeneration of the hepatic tissue, compared with TBPG” value (rats [6]) was “comparable” and the “reduction of the period of sleep induced by Nembutal, compared with TBPG” value (rats [7]) was “essentially comparable”. The “concentration in the kidney” value [8] was “high concentrations in the kidney”, the “distribution in the organs” value [8] was “sufficiently homogenous” and the “organoleptic properties (taste, odor)” value [9] was “undergo substantial change”. For the same compound, the “Chromatographic Impurities” value ([10]; Powder, 60°, 320 hours) was “Traces”, the degraded at 960 h [10, 14] was 1% and the degraded at 1280 h [10, 14] was 1%. For the same compound, the degraded at 1600 h [10, 14] was 2%, the “Chromatographic Impurities” value ([10]; Powder, 70°, 120 hours) was “Traces” and the degraded at 240 h [10, 15] was 1%. It also gave a degraded at 480 h [10, 15] of 2%, a degraded at 45 h [10, 16] of 1% and a degraded at 90 h [10, 16] of 1%. The degraded at 180 h [10, 16] was 2%, the “Chromatographic Impurities” value ([10]; Solution (500 mg in 10 cc water), 60°, 0 hours) was “Absent” and the degraded at 320 h ([10]; Solution (500 mg in 10 cc water), 60°, 320 hours, read-out: Chromatographic Impurities) was 0.5%. The degraded at 640 h ([10]; Solution (500 mg in 10 cc water), 60°, 640 hours, read-out: Chromatographic Impurities) was 0.6%, the degraded at 960 h [10, 17] was 1% and the degraded at 1280 h [10, 17] was 1.5%. It also gave a degraded at 1600 h [10, 17] of 2.5%, a degraded at 180 h [10, 18] of 1% and a degraded at 240 h [10, 18] of 2%. It also gave a degraded at 480 h [10, 18] of 2.5%, a degraded at 45 h [10, 19] of 1% and a degraded at 90 h [10, 19] of 2.5%. For the same compound, the degraded at 120 h ([10]; Solution (500 mg in 10 cc water), 80°, 120 hours, read-out: Chromatographic Impurities) was 1.5%, the stability to light (Stability to light) was “strong yellow color, due to degradation accompanied by an unpleasant odor and taste” and the stability to moisture (Stability to moisture; 50° C.) was “marked change in color, odor and taste accompanied by degradation products”. The stability to moisture (Stability to moisture; room temperature (t.a.)) was “significant change of organoleptic properties”, the “stability in oxidizing medium” value [11] was “the change is greater” and the “stability in reducing medium” value [12] was “undergoes substantial physico-chemical and organoleptic change”. The stability on storage [13] was “low stability”.
